From patent USRE42072E1, “Compositions and methods for enhancing receptor-mediated cellular internalization” (The Penn State Research Foundation, priority 1996, dated 2011) come the findings set out here.

The structures appear in SMILES notation.

The nature of data set [1]: Bioavailability of peptides after vaginal administration to sheep, relative to intravenous injection. To be noted: in vivo. Here is the method:
(§1) First, a peptide that undergoes receptor-mediated transport across the vaginal epithelium was identified by studying the permeation of peptides of varying molecular weight in a sheep model. Peptides were delivered vaginally to sheep in 5 ml of aqueous or methocel solutions with typical peptide concentrations of 10-40 μg/ml. A group of 18 intact ewes were utilized for these experiments. For each study, sheep were randomly assigned to a treatment group. In GnRH studies where each animal received all possible treatment combinations, each animal was assigned to an initial treatment group at random and subsequently randomly to each of the remaining treatment groups. A minimum of 5 days (typically 10 or more days) was allowed between experiments on a given animal, to provide sufficient time for complete recovery of pituitary responsiveness to the highest doses of the GnRH agonist used A 16G 150 mm jugular catheter (Abbocath-T, Abbott Laboratories, Chicago, Ill.) was inserted and blood samples collected at 0, 30, 60, 90, 120, 180, 240, 360, 480 and 1440 min. after treatment. Luteinizing hormone (LH) levels were determined.
(§2) LHRH analog was placed in methyl cellulose solutions (“methocels”) of varying apparent viscosity. […] First, 200 μg of leuprolide acetate in 5 ml of aqueous solutions with melhocel weight concentrations varying between 0% and 3.0% were vaginally administered.
The enhanced bioavailability of LHRH also coincides with a longer-term release into the systemic circulation at the optimal methocel concentrations. […] To test this hypothesis, the efficacy of a second, physically cross-linked hydrogel that was believed would not enhance endocytosis, but whose apparent viscosity (in the range of hydrogel concentrations 0.0-5.5%) was similar to that of the methocels (in the range 0.0-3.0%) was examined.

Data set [2] deals with luteinizing hormone (LH). In words: Serum LH response to iv injection and vaginal administration of LHRH analog in intact ewes. The data set is classed as in vivo, sheep. Here is the method: FIGS. 1a and 1b are graphs showing serum responses to iv injection and vacinal administration of vasopressin and leuprolide acetate. […] Vasopressin was injected intravenously ([…]) through a jugular catheter. The peptide was delivered vaginally in 5 ml of aqueous solution (200 g does). Standard errors are based on n=6. […] LHRH analog was injected intravenously ([…]) into through a jugular catheter. The peptide was delivered vaginally in 5 ml of aqueous solution (200 g dose). Standard errors are based on n=6.
FIG. 2 is a graph showing bioavailability of LHRH analog following vaginal administration as a function of methyl cellulose (“methocel”) concentration. Bioavailability is determined relative to intravenous injection (FIG. 1b) and is based on LH response. The administered dose of LHRH analog was 200 g in 5 ml of methocel solution. Results are based on animals that responded to vaginal treatment, with standard error computed on the basis of n≧4 In all cases, less than 50% of treated animals responded with LH levels greater than 3 ng/ml for more than one sampling point, with sampling times of 0, 30, 60, 90, 120, 180, 240, 360, and 480 min.
as §1, §2

The next data set is described as follows: in vivo. To be noted: female, sheep, in vivo, 40 ug, bioavailability. The class given is in vivo, sheep. Here is the method:
(§3) FIG. 3 is a graph showing the percent of responding animals to LHRH analog vaginal delivery as a function of (simulated) stage of the estrous cycle. Stage of estrous cycle was simulated by delivering estradiol for two weeks to ovariectomized ewes (anestrus phase), followed by two weeks of delivery of estradiol and progesterone (mid-luteal phase), followed by a period of 48 h after progesterone withdrawal (follicular phase). In each simulated phase, 10, 40, or […] of LHRH analog were delivered vaginally in 5 ml of aqueous or methocel solution to groups of six ewes. Responding animals were defined as those treated animals with LH serum values exceeding 3 ng/ml for two or more sampling points, with sampling times of 0, 30, 60, […], 120, 180, 240, 360, and 480 min.
(§4) FIG. 4 is a graph showing serum LH response to vaginal administration of LHRH analog. LHRH analog-was administered vaginally in ovariectomized ewes during the simulated mid-luteal phase in 5 ml of aqueous or methocel (1.75% methyl cellulose) solution (40 μg dose). Standard errors are based on n=6.
(§5) It was therefore hypothesized that the responsiveness of animals to LHRH analog vaginal delivery varied with steroid-dependent hormone receptor expression (estrous cycle). To test this hypothesis, a group of ewes was ovariectomized and administered estradiol and progesterone to mimic the animals' estrous cycle. Ewes were pre-medicated with atropine (0.02 mg/lb) and Telazol (R) (2 mg/lb) intramuscularly. After induction of recumbency, thipental (5% in water) was administered intravenously to induce sufficient anesthesia to permit endotracheal intubation. Anesthesia was maintained using halothane in oxygen at 1-2 liters per minute. Ovaries were removed through a mid-line incision.
(§6) Within 24 h of surgery, a 1.5 cm silicone implant of estradiol (Compudose 200, Elanco, Ind.) was inserted into the left ear to provide a basal level of estradiol. The anestrus state was simulated after two weeks of estradiol delivery following surgery. Experiments were performed in the simulated anestrus state (i.e. two weeks after surgery) as described above. Immediately following the last blood sample, a progesterone-releasing intravaginal device (CIDR-G, Carter Hold Harvey Plastic Products, Hamilton, New Zealand) was inserted.
(§7) In a parallel study, an alternative progesterone-releasing device (Snychro-Mate-B, Sanofi Animal Health, Overland Park, Kans.) was placed in the left ear. The mid-luteal phase was simulated after permitting a 10 day intravaginal or ear progesterone treatment. Experiments were performed in the simulated mid-luteal phase as described above.
(§8) The progesterone-releasing (vaginal or ear) implant was removed and the follicular phase was simulated by allowing a time lapse of 48 h. Experiments were performed in the follicular phase as described above.
(§9) Next, 200 μg of leuprolide acetate in 5 ml of aqueous solutions was vaginally administered during simulated anestrus (estradiol only), mid-luteal (estradiol and progesterone), and follicular (48 h after progesterone withdrawal) phases, as described above. […] In contrast, 100% of animals responded when treated with progesterone and estradiol (FIG. 3).

Data set [3] relates to luteinizing hormone (LH). In words: in vivo. The class given is in vivo, sheep. To be noted: for animals responded: vaginal 200 μg; for LH response: vaginal, progesterone and estradiol treatment. Here is the method: as §3, §4, §5, §6, §7, §8, §9

In the case of `CCNC(=O)[C@@H]1CCCN1C(=O)[C@H](CCCNC(=N)N)NC(=O)[C@H](CC(C)C)NC(=O)[C@@H](CC(C)C)NC(=O)[C@H](Cc1ccc(O)cc1)NC(=O)[C@H](CO)NC(=O)[C@H](Cc1c[nH]c2ccccc12)NC(=O)[C@H](Cc1c[nH]cn1)NC(=O)[C@@H]1CCC(=O)N1` [leuprolide acetate], the bioavailability in data set [1] (female, sheep) came out at 2.6 ± 0.9%; in the data set “in vivo”, 6%; in the data set with luteinizing hormone (LH) [3] (female, sheep, in vivo, 40 ug), 10%. For the same molecule, the “duration of delivery as a function of control gel concentration” value in data set [1] is given as “diminished with increasing control gel concentration”. Also, the “bioavailability as a function of control hydrogel concentration” value in data set [1] (sheep) is listed as “diminished with increasing concentration of the hydrogel”. Further, the “bioavailability as a function of methocel concentration” value in data set [1] (sheep, 200 ug) was “increase as methocel concentration increased to 1.75%, then to fall at higher methocel concentration”. In addition, the “luteinizing hormone (LH) response” value in the data set on luteinizing hormone (LH) [2] (intravenous injection (FIG. 1b)) was “significant”; in the data set with luteinizing hormone (LH) [2] (vaginal administration, aqueous solution (FIG. 1b)) it was “significant”. In addition, the “animals showing little or no response” value with luteinizing hormone (LH) [2] (vaginal administration, intact ewes, bimodal distribution) is listed as “approximately 30%”. Moreover, the “treated animals that responded with LH levels greater than 3 ng/ml for more than one sampling point” value in the data set with luteinizing hormone (LH) [2] (vaginal, 5 ml methocel solution, intact ewes, all methocel concentrations (FIG. 2)) was “less than 50%”. Besides, the animals responded with luteinizing hormone (LH) [3] (treated with progesterone and estradiol (FIG. 3)) is reported as 100%; in the data set with luteinizing hormone (LH) [3] (with or without 1.75% methocel, estrogen replacement without progesterone), “less than 50%”. Moreover, the LH response result in the data set with luteinizing hormone (LH) [3] (highest dose, with and without methocel) is “saturated”; in the data set on luteinizing hormone (LH) [3] (lowest dose (10 μg)), “undetectable”.
